Measurements published in article PMC8697972, “New Auranofin Analogs with Antibacterial Properties against Burkholderia Clinical Isolates” (Antibiotics, 2021).
≈ marks a conversion by molar mass, not a printed value. Like-named read-outs stand apart in the source and are kept apart here.

Test system: B. cenocepacia K56-2
Assay: Multistep resistance by serial passaging at 0.5× MIC
Format: cell-based, Burkholderia cenocepacia
Settings: for MIC: Burkholderia cenocepacia; for change of MIC on serial passaging: 24 days of passaging at 0.5× MIC
[1] = K562, 0 h, day 0 of serial passaging, read-out: starting MIC in multistep resistance assay
[2] = K562, after 12–16 days of passaging at 0.5× MIC, read-out: MIC reached on serial passaging

SMILES	MIC [1] [µg/mL]	MIC [2] [µg/mL]	change of MIC on serial passaging
C[C@H]1c2cccc(O)c2C(=O)C2=C(O)[C@]3(O)C(=O)C(C(N)=O)=C(O)[C@@H](N(C)C)[C@@H]3[C@@H](O)[C@@H]21 [DOX, doxycycline, reference compound]	4 (≈ 9 µM)	256 (≈ 576 µM)	
C[C@@H](O)[C@H]1C(=O)N2C(C(=O)O)=C(S[C@@H]3CN[C@H](C(=O)N(C)C)C3)[C@H](C)[C@H]12 [MEM, meropenem, reference compound]	16 (≈ 41.7 µM)	256 (≈ 668 µM)	
C[PH](C)(C)[Au][S]CCO [MS-40, 2-mercaptoethanolatotrimethylphosphine gold(I)]			no apparent increase
CC(O)C[S][Au-][P+](C)(C)C (stereo not drawn) [MS-40S]			no apparent increase
